Results reported in PMC9611727, “Optimization of a Novel Mandelamide-Derived Pyrrolopyrimidine Series of PERK Inhibitors” (Pharmaceutics, 2022).

Assays:
[1] = target: T1, PIK3C2B (Homo sapiens, UniProt O00750); experiment: scanMAX kinase panel; assay type: binding; settings: read-out: % Control; for remaining binding at 1 µM: 1000 nM
T1 construct: purchased DiscoverX scanMAX
Source text: (§1) Supplemental Table S2. scanMAXSM Kinome Assay Results. Complete tabulated data of all 468 kinases from the panel, including
(§2) 403 wild-type and 65 mutant isoforms. […] Cmpd 11 and Cmpd 24

[2] = target: T2, MAP3K3 (Homo sapiens, UniProt Q99759); experiment: scanMAX kinase panel; assay type: binding; settings: read-out: % Control; for remaining binding at 1 µM: 1000 nM
T2 construct: purchased DiscoverX scanMAX
T2 sequence (Q99759 1-626): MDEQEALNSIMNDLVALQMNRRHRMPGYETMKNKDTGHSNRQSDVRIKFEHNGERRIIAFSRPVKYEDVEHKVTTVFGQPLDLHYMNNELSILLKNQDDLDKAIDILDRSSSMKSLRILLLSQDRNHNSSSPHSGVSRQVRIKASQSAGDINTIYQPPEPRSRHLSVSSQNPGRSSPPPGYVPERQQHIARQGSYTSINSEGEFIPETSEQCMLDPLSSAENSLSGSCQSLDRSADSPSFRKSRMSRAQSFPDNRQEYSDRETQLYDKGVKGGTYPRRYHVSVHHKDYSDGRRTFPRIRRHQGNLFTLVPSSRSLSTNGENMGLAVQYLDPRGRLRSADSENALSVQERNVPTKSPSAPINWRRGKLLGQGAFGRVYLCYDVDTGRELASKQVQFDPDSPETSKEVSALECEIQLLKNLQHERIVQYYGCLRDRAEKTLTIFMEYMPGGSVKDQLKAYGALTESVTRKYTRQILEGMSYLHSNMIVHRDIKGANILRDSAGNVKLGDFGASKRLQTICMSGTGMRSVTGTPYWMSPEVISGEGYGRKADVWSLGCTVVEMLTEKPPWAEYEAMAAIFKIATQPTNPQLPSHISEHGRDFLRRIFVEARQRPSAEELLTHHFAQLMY
Source text: as §1, §2

[3] = target: T3, RIPK2 (Homo sapiens, UniProt O43353); experiment: scanMAX kinase panel; assay type: binding; settings: read-out: % Control; for remaining binding at 1 µM: 1000 nM
T3 construct: purchased DiscoverX (scanMAX panel)
Source text: as §1, §2

[4] = target: T4, BLK (Homo sapiens, UniProt P51451); experiment: scanMAX kinase panel; assay type: binding; settings: read-out: % Control; for remaining binding at 1 µM: 1000 nM
T4 construct: purchased DiscoverX scanMAX
Source text: as §1, §2

[5] = target: T5, PIK3CA(E542K) (Homo sapiens, UniProt P42336, E542K); experiment: scanMAX kinase panel; assay type: binding; settings: read-out: % Control; for remaining binding at 1 µM: 1000 nM
T5 construct: purchased DiscoverX scanMAX
Source text: as §1, §2

[6] = system: 786-O RCC xenografts; experiment: 786-O ccRCC tumor xenograft study; assay type: in vivo; settings: for tolerability by body weight measurement / tumor growth inhibition: 30 mg/kg BID oral, 29 days
Method: In vivo studies of the effect of pyrrolopyrimidines on 786-O xenograft inhibition follow a method published elsewhere. Female BALB/c nude mice were inoculated subcutaneously with 786-O tumor cells (5 × 10^6) in 0.1 mL of PBS. Animals were randomized when tumors reached 100–200 mm^3 into treatment groups. […] Tumor volumes were measured by caliper and the volume was expressed in mm^3 using the formula: V = (L × W × W)/2, where V, L, and W represent tumor volume, length, and width, respectively. All studies were conducted following an IACUC-approved protocol (AN-1903-05-1798). Experimental data management and reporting were in accordance with applicable Crown Bioscience’s Guidelines and Standard Operating Procedures.

[7] = Metabolic clearance in hepatocytes, rat; assay type: in vitro ADME; settings: male, Sprague Dawley, cryopreserved rat hepatocytes, read-out: Hepatocyte Clearance (t1/2 min) Rat
Method: Metabolic Clearance in Hepatocytes
Testosterone was obtained from Cerilliant (Round Rock, TX). 7-Hydroxycoumarin was obtained from Sigma-Aldrich (St.
Louis, MO). Ten-donor male pooled cryopreserved human hepatocytes, cryopreserved male Sprague Dawley rat hepatocytes, cryopreserved male ICR/CD-1 mouse hepatocytes, cryopreserved male beagle dog hepatocytes, In VitroGro HI Medium (Incubation), and InVitroGro HT Medium (Thawing) were obtained from Bioreclamation IVT (Baltimore, MD). All solvents were obtained from commercial sources and used without further purification.Test compound was prepared as a 1 mM stock solution in DMSO. A 2 µM solution of test compound and testosterone was prepared (7 - hydroxycoumarin was prepared at 20 µM) in In VitroGro HI Medium (Incubation). These solutions were placed in a sterile incubator set to maintain 37°C, 5% CO2, and 98% humidity to pre-warm. Cryopreserved hepatocytes were prepared at a concentration of 2 x 10^6 living cells/mL in incubation media and placed in the incubator to pre-warn. The compound solutions and hepatocyte mixtures were then combined at a ratio of 1:1 (v:v). The final volume of the reaction mixture was 750 µL, containing 1 µM test compound and 1 x 10^6 cells/mL. The reaction mixture was placed in the incubator on a plate shaker. After 0, 15, 30, 60, 90, and 120 minutes of incubation, 100 µL of reaction mixtures were removed from the incubation plate and mixed with 150 µL of ice-cold acetonitrile in a designated well of a 96-well crash plate. The 96-well crash plate was placed on ice for 15 min, and samples were centrifuged (3,600 rpm, 10 min, 4 °C) to precipitate protein.
The supernatants were diluted 1:1 (v/v) with water containing tolbutamide, (internal standard for positive and negative modes, respectively) in a 96-well shallow injection plate. This plate was sealed for LC-MS analysis. All measurements

[8] = Mouse plasma PK after oral gavage; assay type: in vivo; settings: female, CD1, mouse, mice, 10 mg/kg PO
Method: For PK analysis of pyrrolopyrimidine analogs in mouse, rat, and dog plasma, the oral formulation was prepared as a solution containing 20% (w/v) Captisol in 25 mM NaH2PO4 buffer (pH 2). Compounds were administered orally by gavage at 10 mg/kg to female CD1 mice. After dosing, plasma samples were collected to characterize the PK profiles at 0.25, 0.5, 1, 2, 4, 8, 12 and 24 h post-dose. The plasma concentration of compound was determined by protein precipitation with acetonitrile and liquid chromatography with mass spectrometric detection (LC-MS/MS). Parameters were estimated using Phoenix (WinNonlin) pharmacokinetic software version 6.1.0 using a non-compartmental approach consistent with the oral route of administration. PK analysis of 26 in plasma and pancreas followed a similar analytical method as above, with minor modifications. Compound 26 was suspended in a vehicle consisting of 0.5% methylcellulose (400 cP) and 0.1% Tween80 in water and administered to BALB/c nude mice by oral gavage at 0.3, 1, 3, 10, 30 mg/kg. Plasma and pancreas were sampled from 5 mice per group following a single oral administration at 1, 4, 8, 12, 24 h post-dose.

T5 sequence (P42336 whole entry E542K): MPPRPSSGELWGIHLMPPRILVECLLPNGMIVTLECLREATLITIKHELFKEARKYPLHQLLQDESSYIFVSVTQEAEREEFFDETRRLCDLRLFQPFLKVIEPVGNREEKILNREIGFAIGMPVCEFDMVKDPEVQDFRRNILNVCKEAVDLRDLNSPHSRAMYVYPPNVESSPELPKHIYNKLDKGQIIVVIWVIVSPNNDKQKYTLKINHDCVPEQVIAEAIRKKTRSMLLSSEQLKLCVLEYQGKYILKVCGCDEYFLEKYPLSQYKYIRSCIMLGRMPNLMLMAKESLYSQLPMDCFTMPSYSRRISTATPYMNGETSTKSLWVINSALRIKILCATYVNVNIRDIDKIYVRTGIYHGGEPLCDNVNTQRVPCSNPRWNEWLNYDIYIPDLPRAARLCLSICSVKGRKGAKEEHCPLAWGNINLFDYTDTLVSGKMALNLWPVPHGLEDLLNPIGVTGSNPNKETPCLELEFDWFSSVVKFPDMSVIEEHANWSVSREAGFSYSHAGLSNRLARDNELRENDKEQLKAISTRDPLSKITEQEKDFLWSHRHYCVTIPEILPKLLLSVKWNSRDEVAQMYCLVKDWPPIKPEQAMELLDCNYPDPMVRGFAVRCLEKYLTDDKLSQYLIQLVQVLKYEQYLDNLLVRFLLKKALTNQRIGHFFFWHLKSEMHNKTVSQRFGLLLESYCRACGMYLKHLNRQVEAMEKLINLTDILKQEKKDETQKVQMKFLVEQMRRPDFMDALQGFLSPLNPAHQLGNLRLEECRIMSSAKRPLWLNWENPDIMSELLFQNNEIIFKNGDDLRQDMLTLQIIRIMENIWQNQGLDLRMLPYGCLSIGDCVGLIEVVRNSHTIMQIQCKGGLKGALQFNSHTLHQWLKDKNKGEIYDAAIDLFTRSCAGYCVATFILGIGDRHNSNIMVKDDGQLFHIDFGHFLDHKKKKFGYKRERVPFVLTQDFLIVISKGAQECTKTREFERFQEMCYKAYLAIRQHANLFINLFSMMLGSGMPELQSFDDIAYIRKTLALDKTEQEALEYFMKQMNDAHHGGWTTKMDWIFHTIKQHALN
T4 sequence (P51451 whole entry): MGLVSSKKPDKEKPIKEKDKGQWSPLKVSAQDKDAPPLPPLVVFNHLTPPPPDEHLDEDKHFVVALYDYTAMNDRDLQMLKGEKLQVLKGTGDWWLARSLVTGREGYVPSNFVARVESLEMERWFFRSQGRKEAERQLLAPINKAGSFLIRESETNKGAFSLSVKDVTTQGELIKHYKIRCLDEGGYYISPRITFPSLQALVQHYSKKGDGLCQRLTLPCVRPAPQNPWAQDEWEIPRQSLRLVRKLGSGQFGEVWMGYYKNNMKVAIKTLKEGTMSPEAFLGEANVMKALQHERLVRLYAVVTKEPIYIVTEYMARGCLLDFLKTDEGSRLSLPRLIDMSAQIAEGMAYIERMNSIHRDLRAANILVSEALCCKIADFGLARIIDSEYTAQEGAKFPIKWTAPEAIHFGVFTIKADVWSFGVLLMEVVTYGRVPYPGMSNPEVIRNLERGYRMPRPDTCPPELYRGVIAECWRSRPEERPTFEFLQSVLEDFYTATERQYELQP
T1 sequence (O00750 whole entry): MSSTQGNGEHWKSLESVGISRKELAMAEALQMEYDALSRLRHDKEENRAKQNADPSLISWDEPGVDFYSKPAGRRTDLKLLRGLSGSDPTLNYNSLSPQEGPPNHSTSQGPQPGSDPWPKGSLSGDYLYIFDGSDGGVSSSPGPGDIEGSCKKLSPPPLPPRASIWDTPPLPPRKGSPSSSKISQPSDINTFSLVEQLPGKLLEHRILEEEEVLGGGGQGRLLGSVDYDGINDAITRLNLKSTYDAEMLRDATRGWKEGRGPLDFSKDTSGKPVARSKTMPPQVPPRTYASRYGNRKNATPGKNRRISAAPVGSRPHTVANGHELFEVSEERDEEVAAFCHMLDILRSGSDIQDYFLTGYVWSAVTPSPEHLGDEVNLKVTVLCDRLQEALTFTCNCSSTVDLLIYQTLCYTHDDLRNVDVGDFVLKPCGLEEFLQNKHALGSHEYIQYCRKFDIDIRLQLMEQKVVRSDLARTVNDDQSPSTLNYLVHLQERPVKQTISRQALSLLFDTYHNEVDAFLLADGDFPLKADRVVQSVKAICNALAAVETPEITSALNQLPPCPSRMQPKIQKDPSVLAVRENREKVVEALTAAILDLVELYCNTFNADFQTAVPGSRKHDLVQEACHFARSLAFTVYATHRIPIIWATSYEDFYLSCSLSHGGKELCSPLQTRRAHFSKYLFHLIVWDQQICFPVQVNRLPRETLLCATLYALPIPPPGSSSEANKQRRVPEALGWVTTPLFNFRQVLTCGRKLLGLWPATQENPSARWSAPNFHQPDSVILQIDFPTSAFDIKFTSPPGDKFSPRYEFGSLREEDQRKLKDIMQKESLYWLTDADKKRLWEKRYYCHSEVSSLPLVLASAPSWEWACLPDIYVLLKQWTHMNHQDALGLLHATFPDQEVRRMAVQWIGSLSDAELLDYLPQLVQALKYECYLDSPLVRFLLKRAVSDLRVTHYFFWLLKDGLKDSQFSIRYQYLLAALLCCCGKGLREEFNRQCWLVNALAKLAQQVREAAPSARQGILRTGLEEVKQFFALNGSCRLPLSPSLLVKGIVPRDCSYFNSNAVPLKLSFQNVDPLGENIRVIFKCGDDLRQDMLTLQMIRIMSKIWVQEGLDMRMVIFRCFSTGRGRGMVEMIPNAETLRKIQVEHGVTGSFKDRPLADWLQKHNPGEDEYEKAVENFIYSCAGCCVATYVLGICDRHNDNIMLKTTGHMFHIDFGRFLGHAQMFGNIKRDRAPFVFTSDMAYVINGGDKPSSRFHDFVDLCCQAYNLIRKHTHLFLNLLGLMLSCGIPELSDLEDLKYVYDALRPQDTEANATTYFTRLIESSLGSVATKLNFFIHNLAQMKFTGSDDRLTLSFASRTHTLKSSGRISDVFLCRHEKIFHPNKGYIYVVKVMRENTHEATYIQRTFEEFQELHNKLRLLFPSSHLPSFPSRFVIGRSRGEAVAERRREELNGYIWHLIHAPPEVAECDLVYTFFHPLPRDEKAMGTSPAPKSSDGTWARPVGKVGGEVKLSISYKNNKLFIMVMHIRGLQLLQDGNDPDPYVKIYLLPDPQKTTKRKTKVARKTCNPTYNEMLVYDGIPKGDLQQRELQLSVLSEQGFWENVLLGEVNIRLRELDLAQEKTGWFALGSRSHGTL
T3 sequence (O43353 whole entry): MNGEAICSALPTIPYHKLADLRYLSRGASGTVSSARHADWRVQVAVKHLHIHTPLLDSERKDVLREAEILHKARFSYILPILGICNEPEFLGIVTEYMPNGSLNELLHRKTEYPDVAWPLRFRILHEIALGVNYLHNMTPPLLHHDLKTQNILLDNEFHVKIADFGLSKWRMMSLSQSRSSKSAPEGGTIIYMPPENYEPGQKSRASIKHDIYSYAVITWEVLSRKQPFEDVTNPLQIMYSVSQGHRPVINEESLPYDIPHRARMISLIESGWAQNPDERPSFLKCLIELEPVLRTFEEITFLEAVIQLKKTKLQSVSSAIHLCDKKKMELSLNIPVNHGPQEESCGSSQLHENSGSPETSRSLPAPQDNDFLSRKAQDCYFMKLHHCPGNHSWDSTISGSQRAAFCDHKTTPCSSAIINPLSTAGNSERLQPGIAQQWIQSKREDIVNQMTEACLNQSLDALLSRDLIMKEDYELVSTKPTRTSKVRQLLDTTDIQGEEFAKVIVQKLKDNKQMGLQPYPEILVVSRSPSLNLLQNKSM

| Structure (SMILES) | half-life at 1 µM [7] [h] | AUC(0-t) [8] [ng·h/mL] | Cmax [8] [ng/mL] | bioavailability [8] [%] | half-life [8] [h] | remaining binding at 1 µM [1] [%] | remaining binding at 1 µM [2] [%] | remaining binding at 1 µM [3] [%] | remaining binding at 1 µM [4] [%] | remaining binding at 1 µM [5] [%] | tolerability by body weight measurement [6] | tumor growth inhibition [6] | effect on body weight ([6]; 10 or 30 mg/kg, 28-day study period) | tumor volume ([6]; 10 or 30 mg/kg, 28 days) | remaining binding at 0.1 µM ([1]; 100 nM) [%] | remaining binding at 0.1 µM ([2]; 100 nM) [%] | remaining binding at 0.1 µM ([3]; 100 nM) [%] | remaining binding at 0.1 µM ([4]; 100 nM) [%] | remaining binding at 0.1 µM ([5]; 100 nM) [%] |
| --- | --- | --- | --- | --- | --- | --- | --- | --- | --- | --- | --- | --- | --- | --- | --- | --- | --- | --- | --- |
| Cc1cc(NC(=O)[C@H](O)c2cccc(F)c2)ccc1-c1cn(C)c2ncnc(N)c12 [Compound 11, (R)-N-(4-(4-amino-7-methyl-7H-pyrrolo[2,3-d]pyrimidin-5-yl)-3-methylphenyl)-2-(3-fluorophenyl)-2-hydroxy acetamide] | – | – | – | – | – | 27 | 32 | 15 | 19 | 89 | – | – | – | – | – | – | – | – | – |
| Cc1nc(N)c2c(-c3ccc(NC(=O)[C@H](O)c4cccc(F)c4)cc3C)cn(C)c2n1 [Compound 24] | 0.383 | 37500 | 13100 | 77 | 2.1 | 100 | 100 | 100 | 100 | 0.7 | well tolerated | significant tumor growth inhibition | – | – | – | – | – | – | – |
| Cc1nc(N)c2c(-c3ccc(NC(=O)[C@H](O)c4cccc(C(F)(F)F)c4)cc3C)cn(C)c2n1 [Compound 26] | 2.77 | 126000 | 17200 | 82 | 3.5 | 78 | 92 | 43 | 91 | 91 | well tolerated | significant tumor growth inhibition | No significant effects on body weght | significantly decreased tumor volume | 100 | 100 | 91 | 100 | 100 |
| Cc1nc(N)c2c(-c3ccc(NC(=O)[C@H](O)c4cccc(Cl)c4)cc3C)cn(C)c2n1 [Compound 28] | 0.45 | 65800 | 14100 | 84 | 2.4 | – | – | – | – | – | – | – | – | – | – | – | – | – | – |
| Cc1nc(N)c2c(-c3ccc(NC(=O)[C@H](O)c4cccc(F)c4)c(F)c3F)cn(C)c2n1 [Compound 70, (R)-N-(4-(4-amino-2,7-dimethyl-7H-pyrrolo[2,3-d]pyrimidin-5-yl)-2,3-difluorophenyl)-2-(3-fluorophenyl)-2-hydroxyacetamide] | 0.25 | 32300 | 9720 | 117 | 2 | – | – | – | – | – | well tolerated | significant tumor growth inhibition | – | – | – | – | – | – | – |

More lines, main results first:

| half-life at 1 µM [7] [h] | AUC(0-t) [8] [ng·h/mL] | Cmax [8] [ng/mL] | bioavailability [8] [%] | half-life [8] [h] | Structure (SMILES) | remaining binding at 1 µM [1] [%] | remaining binding at 1 µM [2] [%] | remaining binding at 1 µM [3] [%] | remaining binding at 1 µM [4] [%] | remaining binding at 1 µM [5] [%] | tolerability by body weight measurement [6] | tumor growth inhibition [6] | effect on body weight ([6]; 10 or 30 mg/kg, 28-day study period) | tumor volume ([6]; 10 or 30 mg/kg, 28 days) | remaining binding at 0.1 µM ([1]; 100 nM) [%] | remaining binding at 0.1 µM ([2]; 100 nM) [%] | remaining binding at 0.1 µM ([3]; 100 nM) [%] | remaining binding at 0.1 µM ([4]; 100 nM) [%] | remaining binding at 0.1 µM ([5]; 100 nM) [%] |
| --- | --- | --- | --- | --- | --- | --- | --- | --- | --- | --- | --- | --- | --- | --- | --- | --- | --- | --- | --- |
| 2.02 | 28900 | 8600 | 94 | 2 | Cc1nc(N)c2c(-c3ccc(NC(=O)[C@H](O)c4cc(F)cc(F)c4)cc3C)cn(C)c2n1 [Compound 38] | – | – | – | – | – | – | – | – | – | – | – | – | – | – |
| 4.2 | 86400 | 14300 | 78 | 2.9 | Cc1nc(N)c2c(-c3ccc(NC(=O)[C@H](O)c4cc(F)cc(C(F)(F)F)c4)cc3C)cn(C)c2n1 [Compound 39] | – | – | – | – | – | – | – | – | – | – | – | – | – | – |
| 0.267 | 26000 | 12500 | 40 | 2.7 | Cc1cc(F)cc([C@@H](O)C(=O)Nc2ccc(-c3cn(C)c4nc(C)nc(N)c34)c(C)c2)c1 [Compound 41] | – | – | – | – | – | – | – | – | – | – | – | – | – | – |
| 0.417 | 10900 | 3020 | 70 | 2.1 | Cc1nc(N)c2c(-c3ccc(NC(=O)[C@H](O)c4cccc(Cl)c4)cc3F)cn(C)c2n1 [Compound 48] | – | – | – | – | – | – | – | – | – | – | – | – | – | – |
| 0.367 | 40100 | 8150 | 129 | 2.2 | Cc1nc(N)c2c(-c3ccc(NC(=O)[C@H](O)c4cccc(F)c4)c(F)c3C)cn(C)c2n1 [Compound 65] | – | – | – | – | – | – | – | – | – | – | – | – | – | – |
| 0.217 | 39800 | 9610 | 126 | 2 | Cc1nc(N)c2c(-c3cc(F)c(NC(=O)[C@H](O)c4cccc(F)c4)cc3C)cn(C)c2n1 [Compound 66] | – | – | – | – | – | – | – | – | – | – | – | – | – | – |
